Target: T1, recombinant human Estrogen Receptor alpha ligand binding domain, residues 307-554 (ER alpha-LBD (GST)) (Homo sapiens, UniProt P03372)
T1 construct: made in house
T1 sequence (P03372 307-554): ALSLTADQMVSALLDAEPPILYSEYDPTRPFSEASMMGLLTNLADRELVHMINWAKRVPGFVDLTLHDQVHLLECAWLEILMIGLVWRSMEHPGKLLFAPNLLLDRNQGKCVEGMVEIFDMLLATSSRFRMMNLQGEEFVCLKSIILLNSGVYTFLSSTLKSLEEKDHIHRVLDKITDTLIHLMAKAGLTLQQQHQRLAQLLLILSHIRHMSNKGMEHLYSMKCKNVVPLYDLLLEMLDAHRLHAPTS
Assay: ERα binding assay (LanthaScreen TR-FRET competition)
Conditions: TR-FRET competition with Fluormone ES2 tracer, 4 hours at room temperature; single experiment or average of two or more

How did the IC50 turn out when `Cc1ncsc1-c1ccc(CNC(=O)[C@@H]2C[C@@H](O)CN2C(=O)[C@@H](NC(=O)COCc2ccc(COc3cc(F)c([C@@H]4c5[nH]c6ccccc6c5C[C@@H](C)N4CC(C)(C)F)c(F)c3)cn2)C(C)(C)C)cc1` [Example 86, (2S,4R)-1-((S)-2-(2-((5-((3,5-Difluoro-4-((1R,3R)-2-(2-fluoro-2-methylpropyl)-3-methyl-2,3,4,9-tetrahydro-1H-pyrido[3,4-b]indol-1-yl)phenoxy)methyl)pyridin-2-yl)methoxy)acetamido)-3,3-dimethylbutanoyl)-4-hydroxy-N-(4-(4-methylthiazol-5-yl)benzyl)pyrrolidine-2-carboxamide] was run?
Its IC50 is 0.7 nM.

How did the IC50 turn out when `Cc1ncsc1-c1ccc(CNC(=O)[C@@H]2C[C@@H](O)CN2C(=O)[C@@H](NC(=O)COCCOCCOCCNC(=O)c2cc(F)c([C@@H]3c4[nH]c5ccccc5c4C[C@@H](C)N3CC(C)(C)F)c(F)c2)C(C)(C)C)cc1` [Example 91, (2S,4R)-1-((S)-15-(tert-Butyl)-1-(3,5-difluoro-4-((1R,3R)-2-(2-fluoro-2-methylpropyl)-3-methyl-2,3,4,9-tetrahydro-1H-pyrido[3,4-b]indol-1-yl)phenyl)-1,13-dioxo-5,8,11-trioxa-2,14-diazahexadecan-16-oyl)-4-hydroxy-N-(4-(4-methylthiazol-5-yl)benzyl)pyrrolidine-2-carboxamide] was run?
Its IC50 is 1.3 nM.

`Cc1ncsc1-c1ccc(CNC(=O)[C@@H]2C[C@@H](O)CN2C(=O)[C@@H](NC(=O)COCCCCOCCCOc2cc(F)c([C@@H]3c4[nH]c5ccccc5c4C[C@@H](C)N3CC(C)(C)F)c(F)c2)C(C)(C)C)cc1` [Example 93] was tested. Which IC50 did it give?
The IC50 was 0.7 nM.

For `Cc1ncsc1-c1ccc(CNC(=O)[C@@H]2C[C@@H](O)CN2C(=O)[C@@H](NC(=O)COCCCOCCOc2cc(F)c([C@@H]3c4[nH]c5ccccc5c4C[C@@H](C)N3CC(F)(F)F)c(F)c2)C(C)(C)C)cc1` [Example 94, (2S,4R)-1-((S)-2-(2-(3-(2-(3,5-Difluoro-4-((1R,3R)-3-methyl-2-(2,2,2-trifluoroethyl)-2,3,4,9-tetrahydro-1H-pyrido[3,4-b]indol-1-yl)phenoxy)ethoxy)propoxy)acetamido)-3,3-dimethylbutanoyl)-4-hydroxy-N-(4-(4-methylthiazol-5-yl)benzyl)pyrrolidine-2-carboxamide], which IC50 is on record?
Its IC50 is 0.9 nM.

With `Cc1ncsc1-c1ccc(CNC(=O)[C@@H]2C[C@@H](O)CN2C(=O)[C@@H](NC(=O)COCCOCCOCCOc2cc(F)c([C@@H]3c4[nH]c5ccccc5c4C[C@@H](C)N3CC(F)(F)F)c(F)c2)C(C)(C)C)cc1` [Example 95, (2S,4R)-1-((S)-2-(tert-Butyl)-14-(3,5-difluoro-4-((1R,3R)-3-methyl-2-(2,2,2-trifluoroethyl)-2,3,4,9-tetrahydro-1H-pyrido[3,4-b]indol-1-yl)phenoxy)-4-oxo-6,9,12-trioxa-3-azatetradecanoyl)-4-hydroxy-N-(4-(4-methylthiazol-5-yl)benzyl)pyrrolidine-2-carboxamide] as the compound, how does the IC50 read?
The IC50 was 1.2 nM.

`Cc1ncsc1-c1ccc(CNC(=O)[C@@H]2C[C@@H](O)CN2C(=O)[C@@H](NC(=O)COCCCCCOc2cc(F)c([C@@H]3c4[nH]c5ccccc5c4C[C@@H](C)N3CC(F)(F)F)c(F)c2)C(C)(C)C)cc1` [Example 96] was tested. Which IC50 did it give?
The IC50 was 0.6 nM.

For `Cc1ncsc1-c1ccc(CNC(=O)[C@@H]2C[C@@H](O)CN2C(=O)[C@@H](NC(=O)COCCOCCCCCOc2cc(F)c([C@@H]3c4[nH]c5ccccc5c4C[C@@H](C)N3CC(C)(C)F)c(F)c2)C(C)(C)C)cc1` [Example 97, (2S,4R)-1-((S)-2-(2-(2-((5-(3,5-Difluoro-4-((1R,3R)-2-(2-fluoro-2-methylpropyl)-3-methyl-2,3,4,9-tetrahydro-1H-pyrido[3,4-b]indol-1-yl)phenoxy)pentyl)oxy)ethoxy)acetamido)-3,3-dimethylbutanoyl)-4-hydroxy-N-(4-(4-methylthiazol-5-yl)benzyl)pyrrolidine-2-carboxamide], which IC50 is on record?
The IC50 was 0.5 nM.

From patent US10519152B2, “Compounds and their use in treating cancer” (AstraZeneca AB, priority 2017, dated 2019)
